In brackets after ≈: the same amount, converted by molar mass.
Tests used:
Staphylococcus aureus [1] = test: Antibacterial activity against methicillin resistant Staphylococcus aureus 42 assessed as inhibition of bacterial growth; assay type: functional
Staphylococcus aureus [2] = test: Antibacterial activity against methicillin resistant Staphylococcus aureus 181 assessed as inhibition of bacterial growth; assay type: functional
Staphylococcus aureus [3] = test: Antibacterial activity against methicillin resistant Staphylococcus aureus 128 assessed as inhibition of bacterial growth; assay type: functional
Staphylococcus aureus [4] = test: Antibacterial activity against methicillin resistant Staphylococcus aureus 747 assessed as inhibition of bacterial growth; assay type: functional
Staphylococcus aureus [5] = test: Antimicrobial activity against methicillin resistant Staphylococcus aureus 1 assessed as inhibition of bacterial growth incubated for 16 to 20 hrs by CLSI protocol based Muller-Hinton broth method; assay type: functional; conditions: time 16-20 hrs
Staphylococcus aureus [6] = test: Antimicrobial activity against methicillin resistant Staphylococcus aureus 2 assessed as inhibition of bacterial growth incubated for 16 to 20 hrs by CLSI protocol based Muller-Hinton broth method; assay type: functional; conditions: time 16-20 hrs
Staphylococcus aureus [7] = test: Antimicrobial activity against methicillin resistant Staphylococcus aureus 3 assessed as inhibition of bacterial growth incubated for 16 to 20 hrs by CLSI protocol based Muller-Hinton broth method; assay type: functional; conditions: time 16-20 hrs
Staphylococcus aureus [8] = test: Antibiofilm activity against methicillin resistant Staphylococcus aureus ATCC 43866 assessed as inhibition of biofilm formation incubated for 18 to 24 hrs by tissue culture plate method; assay type: functional; conditions: time 18-24 hrs
Staphylococcus aureus [9] = test: Antibacterial activity against methicillin resistant Staphylococcus aureus assessed as inhibition of bacterial growth by broth dilution technique; assay type: functional
Staphylococcus aureus [10] = test: Antibacterial activity against methicillin resistant Staphylococcus aureus assessed as inhibition zone by disc diffusion method; assay type: functional
Staphylococcus aureus [11] = test: microbe, parasite or virus in culture; conditions: 032
Description: Antibacterial activity against methicillin resistant Staphylococcus aureus 032 assessed as inhibition of bacterial growth by CLSI protocol based serial dilution method

Staphylococcus aureus [12] = test: Antibacterial activity methicillin resistant Staphylococcus aureus 2658 RCMB assessed as inhibition of bacterial growth by broth microdilution method; assay type: functional

Structure (SMILES)	MIC (Staphylococcus aureus [1])	MIC (Staphylococcus aureus [2])	MIC (Staphylococcus aureus [3])	MIC (Staphylococcus aureus [4])	also measured
O=c1c(F)cnc2onc(-c3ccc(Cl)cc3)n12	111 mg/L (≈ 416 µM)	≥ 125 mg/L	≥ 125 mg/L	≥ 125 mg/L	
CCn1cc(C(=O)O)c(=O)c2cc(F)c(N3CCN(Cc4nnc(-c5ccc(C#N)cc5)o4)CC3)cc21					MIC (Staphylococcus aureus [5]): 1 mg/L (≈ 1.99 µM); MIC (Staphylococcus aureus [6]): 1 mg/L (≈ 1.99 µM); MIC (Staphylococcus aureus [7]): 2 mg/L (≈ 3.98 µM)
Cn1c(-c2nnc(-c3ccncc3)o2)cc(Br)c1Br					MIC (Staphylococcus aureus [8]): 3.12 mg/L (≈ 8.14 µM)
O=c1c(F)cnc2onc(-c3c(F)cccc3F)n12	122 mg/L (≈ 458 µM)	120 mg/L (≈ 447 µM)	≥ 125 mg/L	≥ 125 mg/L	
Cn1c(-c2nnc(-c3ccccc3O)o2)cc(Br)c1Br					MIC (Staphylococcus aureus [8]): 6.25 mg/L (≈ 15.7 µM)
CCn1cc(C(=O)O)c(=O)c2cc(F)c(N3CCN(Cc4nnc(-c5ccccc5C)o4)CC3)cc21					MIC (Staphylococcus aureus [5]): 1 mg/L (≈ 2.03 µM); MIC (Staphylococcus aureus [6]): 0.5 mg/L (≈ 1.02 µM); MIC (Staphylococcus aureus [7]): 2 mg/L (≈ 4.07 µM)
CO/N=C(\C(=O)N[C@@H]1C(=O)N2C(C(=O)[O-])=C(C[N+]3(C)CCCC3)CS[C@H]12)c1csc(N)n1	36.5 mg/L (≈ 76 µM)	15.2 mg/L (≈ 31.6 µM)	20 mg/L (≈ 41.6 µM)	26.9 mg/L (≈ 56 µM)	
O=c1c(F)cnc2onc(-c3ccc(F)cc3F)n12	96.4 mg/L (≈ 361 µM)	100 mg/L (≈ 375 µM)	87.4 mg/L (≈ 327 µM)	≥ 125 mg/L	
O=c1c(F)cnc2onc(-c3ccc(Cl)cc3Cl)n12	116 mg/L (≈ 388 µM)	≥ 125 mg/L	≥ 125 mg/L	≥ 125 mg/L	
O=c1c(Br)cnc2onc(-c3ccccc3Cl)n12	76.4 mg/L (≈ 234 µM)	79.4 mg/L (≈ 243 µM)	84.4 mg/L (≈ 258 µM)	79.4 mg/L (≈ 243 µM)	
COc1ccc(-c2nnc(-c3cc(Br)c(Br)n3C)o2)cc1					MIC (Staphylococcus aureus [8]): 1.56 mg/L (≈ 3.78 µM)
CCCCCCCCCCCCCCc1nnc(-c2ccco2)o1					MIC (Staphylococcus aureus [9]): 12.5 mg/L (≈ 37.6 µM); inhibition zone (IZ) (Staphylococcus aureus [10]): 15.5 mm
Cn1c(-c2nnc(-c3ccccc3)o2)cc(Br)c1Br					MIC (Staphylococcus aureus [8]): 6.25 mg/L (≈ 16.3 µM)
CC1(C)S[C@@H]2[C@H](NC(=O)[C@H](N)c3ccccc3)C(=O)N2[C@H]1C(=O)O [AMPICILLIN]					MIC (Staphylococcus aureus [11]): > 32 mg/L
CCCCCCCCCCCCCCC(Br)c1nnc(-c2ccccc2Cl)o1 (configuration not stated)					MIC (Staphylococcus aureus [9]): 12.5 mg/L (≈ 26.6 µM); inhibition zone (IZ) (Staphylococcus aureus [10]): 20.5 mm
O=c1c(Br)cnc2onc(-c3cccc(Cl)c3Cl)n12	86.2 mg/L (≈ 239 µM)	≥ 125 mg/L	90.3 mg/L (≈ 250 µM)	≥ 125 mg/L	
CC[C@H]1OC(=O)[C@H](C)[C@@H](O[C@H]2C[C@@](C)(OC)[C@@H](O)[C@H](C)O2)[C@H](C)[C@@H](O[C@@H]2O[C@H](C)C[C@H](N(C)C)[C@H]2O)[C@](C)(O)C[C@@H](C)C(=O)[C@H](C)[C@@H](O)[C@]1(C)O [ERYTHROMYCIN]					MIC (Staphylococcus aureus [11]): > 32 mg/L
Cc1nc(/C(=C\c2coc3ccccc3c2=O)c2ccc([N+](=O)[O-])cc2)no1					MIC (Staphylococcus aureus [11]): > 32 mg/L
Cc1nc(-c2ccc(C(C)(C)C)cc2)sc1-c1nnc(NC(=N)c2ccncc2)o1					MIC (Staphylococcus aureus [12]): > 50 mg/L
Cn1c(-c2nnc(-c3cc(F)ccc3Cl)o2)cc(Br)c1Br					MIC (Staphylococcus aureus [8]): 3.12 mg/L (≈ 7.18 µM)
C=CCCCCCCCc1nnc(-c2ccco2)o1					MIC (Staphylococcus aureus [9]): 12.5 mg/L (≈ 48 µM); inhibition zone (IZ) (Staphylococcus aureus [10]): 11.1 mm
Cc1nc(/C(=C\c2coc3ccc(Br)cc3c2=O)c2ccc([N+](=O)[O-])cc2)no1					MIC (Staphylococcus aureus [11]): > 32 mg/L
Cn1c(-c2nnc(-c3ccc([N+](=O)[O-])cc3)o2)cc(Br)c1Br					MIC (Staphylococcus aureus [8]): 3.12 mg/L (≈ 7.3 µM)
CCn1cc(C(=O)O)c(=O)c2cc(F)c(N3CCNCC3)cc21 [NORFLOXACIN]					MIC (Staphylococcus aureus [5]): 1 mg/L (≈ 3.13 µM); MIC (Staphylococcus aureus [6]): 2 mg/L (≈ 6.26 µM); MIC (Staphylococcus aureus [7]): 1 mg/L (≈ 3.13 µM)
O=c1c(Br)cnc2onc(-c3ccccc3)n12	123 mg/L (≈ 422 µM)	≥ 125 mg/L	≥ 125 mg/L	≥ 125 mg/L	
Cc1nc(/C(=C\c2coc3c(Cl)cc(Cl)cc3c2=O)c2ccc([N+](=O)[O-])cc2)no1					MIC (Staphylococcus aureus [11]): 32 mg/L (≈ 72 µM)
Cn1c(-c2nnc(-c3ccc(N)cc3)o2)cc(Br)c1Br					MIC (Staphylococcus aureus [8]): 1.56 mg/L (≈ 3.92 µM)
Cc1ccc(-c2noc3ncc(Br)c(=O)n23)cc1	119 mg/L (≈ 388 µM)	≥ 125 mg/L	≥ 125 mg/L	≥ 125 mg/L	
Cc1nc(-c2ccc(C(C)(C)C)cc2)sc1-c1nnc(NC(=N)N2CCOCC2)o1					MIC (Staphylococcus aureus [12]): 25 mg/L (≈ 58.6 µM)
C=CCCCCCCCc1nnc(-c2ccccc2Cl)o1					MIC (Staphylococcus aureus [9]): 12.5 mg/L (≈ 41 µM); inhibition zone (IZ) (Staphylococcus aureus [10]): 14.4 mm
